Assay results as given in US20220386606A1, “SPECIFICALLY SUBSTITUTED 3-PHENYL-5-SPIROCYCLOPENTYL-3-PYRROLIN-2-ONES AND THEIR USE AS HERBICIDES” (Bayer Aktiengesellschaft, priority 2019, published 2022).

Assays:
[1] = test system: DIGSA; assay: Post-emergence herbicidal action against DIGSA; assay type: in vivo, Digitaria sanguinalis; conditions: 80 g/ha, visual assessment about 3 weeks after treatment vs untreated controls
In short: (§1)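 Greenhouse post-emergence test; one-leaf stage (2–3 wk post-sowing), sandy loam. Spray: WP/EC in water, 600–800 l/ha, 0.2% wetting agent, onto green parts. Visual rating ~3 wk later, % vs untreated (100% = dead, 0% = like control).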

[2] = test system: ABUTH; assay: Post-emergence herbicidal action against ABUTH; assay type: in vivo, Abutylon threophrasti; conditions: 80 g/ha, visual assessment about 3 weeks after treatment vs untreated controls
In short: as §1

[3] = test system: AVEFA; assay: Post-emergence herbicidal action against AVEFA; assay type: in vivo, Avena fatua; conditions: 80 g/ha, visual assessment after about 3 weeks
In short: as §1

[4] = test system: SETVI; assay: Post-emergence herbicidal action against SETVI; assay type: in vivo, Setaria viridis; conditions: 80 g/ha, visual assessment about 3 weeks after treatment vs untreated controls
In short: as §1

[5] = test system: LOLRI; assay: Post-emergence herbicidal action against LOLRI; assay type: in vivo, Lolium rigidum; conditions: 80 g/ha, visual assessment about 3 weeks after treatment vs untreated controls
In short: as §1

[6] = test system: ALOMY; assay: Post-emergence herbicidal action against ALOMY; assay type: in vivo, Alopecurus myosuroides; conditions: 80 g/ha, visual assessment after about 3 weeks
In short: as §1

[7] = test system: ECHCG; assay: Post-emergence herbicidal action against ECHCG; assay type: in vivo, Echinochloa crus-galli; conditions: 80 g/ha, visual assessment about 3 weeks after treatment vs untreated controls
In short: as §1

[8] = test system: HORMU; assay: Post-emergence herbicidal action against HORMU; assay type: in vivo, Hordeum murinum; conditions: 80 g/ha, visual assessment about 3 weeks after treatment vs untreated controls
Description: Seeds of monocotyledonous and dicotyledonous weed and crop plants are laid out in sandy loam soil in wood-fiber pots, covered with soil and cultivated in a greenhouse under good growth conditions. 2 to 3 weeks after sowing, the test plants are treated at the one-leaf stage. The compounds of the invention, formulated in the form of wettable powders (WP) or as emulsion concentrates (EC), are then sprayed onto the green parts of the plants as aqueous suspension or emulsion at a water application rate equating to 600 to 800 l/ha with addition of 0.2% wetting agent. After the test plants have been left to stand in the greenhouse under optimal growth conditions for about 3 weeks, the action of the preparations is assessed visually in comparison to untreated controls (herbicidal action in percent (%): 100% activity=the plants have died, 0% activity=like control plants).

SMILES	Post-emergence action against DIGSA in % [1] [%]	Post-emergence action against ABUTH in % [2] [%]	Post-emergence action against AVEFA in % [3] [%]	Post-emergence action against SETVI in % [4] [%]	Post-emergence action against LOLRI in % [5] [%]	Post-emergence action against ALOMY in % [6] [%]	Post-emergence action against ECHCG in % [7] [%]	Post-emergence action against HORMU in % [8] [%]
CC#Cc1cc(Cl)c(C2=C(OC(=O)C(C)C)C3(CCC(COC)C3)NC2=O)c(CC)c1 (centres unmarked) [Example P-14]	100	90	100	100	100	100	100	100
CC#Cc1cc(Cl)c(C2=C(OC(=O)C(C)C)C3(CCC(COCC)C3)NC2=O)c(OC)c1 (centres unmarked) [Example P-25]	100	90	100	100	100	100	100	100
CC#Cc1cc(C)c(C2=C(OC(=O)C(C)C)C3(CCC(COCC)C3)NC2=O)c(Cl)c1 (centres unmarked) [Example P-03]	100	80	100	100	100	100	100	100
CC#Cc1cc(Cl)c(C2=C(OC(=O)OCC)C3(CCC(COCC)C3)NC2=O)c(OC)c1 (centres unmarked) [Example P-26]	100	80	100	100	100	100	100	100
CC#Cc1cc(C)c(C2=C(O)C3(CCC(COC)C3)NC2=O)c(Cl)c1 (centres unmarked) [Example I-06]	100	80	100	100	100	100	100	100
C#Cc1cc(Cl)c(C2=C(OC(=O)OCC)C3(CCC(COC)C3)NC2=O)c(OC)c1 (centres unmarked) [Example P-02]	100		100	100	100	100	100	100
CC#Cc1cc(C)c(C2=C(O)C3(CCC(COC)C3)NC2=O)c(Cl)c1 (centres unmarked) [Example I-12]	100	90	100	100	100	100	100	100
CC#Cc1cc(C)c(C2=C(O)C3(CCC(COCC)C3)NC2=O)c(Cl)c1 (centres unmarked) [Example I-09]	100		100	100	100	100	100	100
CC#Cc1cc(Cl)c(C2=C(O)C3(CCC(COCC)C3)NC2=O)c(CC)c1 (centres unmarked) [Example I-15]	100		100	100	100	100	100	100
CC#Cc1cc(C)c(C2=C(OC(=O)OCC)C3(CCC(COCC)C3)NC2=O)c(Cl)c1 (centres unmarked) [Example P-09]	100		100	100	100	100	100	100
CC#Cc1cc(Cl)c(C2=C(OC(=O)C(C)C)C3(CCC(COCC)C3)NC2=O)c(CC)c1 (centres unmarked) [Example P-12]	100		100	100	100	100	100	100
C#Cc1cc(Cl)c(C2=C(O)C3(CCC(COCC)C3)NC2=O)c(OC)c1 (centres unmarked) [Example I-14]	90		90	90	90	90	90	90
CC#Cc1cc(Cl)c(C2=C(O)C3(CCC(COCC)C3)NC2=O)c(CC)c1 (centres unmarked) [Example I-03]	100		100	100	100	100	100	100
CC#Cc1cc(Cl)c(C2=C(OC(=O)OCC)C3(CCC(COCC)C3)NC2=O)c(CC)c1 (centres unmarked) [Example P-20]	100		100	100	100	100	100	100
